{"source": "paper PMC10535219", "about": "“Discovery and Potential Utility of a Novel Non-Invasive Ocular Delivery Platform” (Pharmaceutics, 2023)", "assay": "Biodisposition of JV-DE1 and JV-MD2 delivered via NIODP (periorbital skin) in non-human primates", "type": "in vivo, cynomolgus monkeys", "details": "for Cmax / concentration at 24 h / concentration at 3 h / concentration at 6 h / concentration at 0.5 h: cynomolgus, cynomolgus monkey", "description": "All experiments were performed at Medicilon. […] A pen brush was used to dose each formulation with three to four circular motions for even distribution. The doses of the test articles were selected based on their solubility/concentration with the maximum deliverable volume on the periorbital skin of the animals. The administered dose was calculated by the weight difference of the pen brush before and after administration. Animals were restrained from eye rubbing in restraint chairs for 2 h after dosing, with access to food and drink. A blood sample was collected from one of the study animals at pre-dosing. For every time point of 0.5, 3, 6, and 24 h post-dose, one animal was euthanized and the ocular tissues (upper eyelid, cornea, retina, and vitreous humor) of both eyes were collected. Plasma samples were collected before each euthanization.\nFor the convenience of tissue processing and sample extraction, only upper eyelids were collected to represent the entirety of the periorbital tissue. Ocular tissues were homogenized by adding a 9-fold volume of 50% methanol/H2O per gram of tissue. For the LC-MS/MS sample preparation, a 50 μL aliquot of plasma, aqueous humor, vitreous humor, or tissue homogenate was thoroughly mixed with a 250 μL extraction solution of CHCl3/EtOH (1:1); then, a 210 μL supernatant of the samples was transferred to a 96-well plate after centrifugation. The samples were evaporated in nitrogen gas (N2) until dried. Each sample was redissolved in 200 μL MeOH, of which 2 µL was injected for the LC-MS/MS analysis.\nThe LC system was the same as that described in Section 2. The MS analysis was performed using a Triple Quad 5500 with an ESI ion source, and the data acquisition and control system were Analyst 1.6.3 software from Applied Biosystems/MDS Sciex.\nThe LC/MS conditions for JV-DE1 are described in Supplementary Table S2. The LC conditions were as follows: ACQUITY UPLC ® BEH C18 1.7 μm, 2.1 mm × 50 mm; the mobile phase Column A, 0.1% formic acid in water; and Column B, 0.1% formic acid in acetonitrile. The flow rate was 0.6 ml/min, the column temperature was 50 °C, and the injection volume was 2 µL. The MS conditions were as follows: scan type, positive MRM; ion source, turbo spray; ionization model, ESI; nebulizer gas 1, 55 psi; gas 2, 55 psi; curtain gas, 40 psi; CAD, 10; ionspray voltage, 5500 V; and temperature, 550 °C.\nThe LC/MS conditions for JV-MD2 (DHA) are described in Supplementary Table S3. The LC conditions were as follows: ACQUITY UPLC® BEH C18 1.7 μm, 2.1 mm × 50 mm; the mobile phase Column A, […] NH4AC in H2O; and Column B, CAN. The flow rate was 0.5 mL/min, the column temperature was 40 °C, and the injection volume was 4 µL. The MS conditions were as follows: scan type, negative MRM; ion source, turbo spray; ionization model, ESI; nebulizer gas 1, 55 psi; gas 2, 55 psi; curtain gas, 40 psi; CAD, 9; ionspray voltage, 5500 V; and temperature, 550 °C.", "key": {"[1]": {"details": "JV-DE1, monkey, NIODP OD, 159.3 μg/eye, 24 h"}, "[2]": {"details": "JV-DE1, monkey, NIODP OD, 160.6 μg/eye, 3 h"}, "[3]": {"details": "JV-DE1, monkey, NIODP OD, 162.2 μg/eye, 6 h"}, "[4]": {"details": "JV-DE1, monkey, NIODP OD, 179.1 μg/eye, 0.5 h"}}, "note": "Where two headings read alike, the source gives them in different places.", "data": [{"compound": "CC(C)Oc1ccc(Cc2ccc(NC3=NCCN3)cc2)cc1", "note": "[JV-DE1, 4,5-dihydro-N-[4-[[4-(1-methylethoxy)phenyl]methyl]phenyl]-1H-imadazol-2-amine]", "values": [{"measurement": "Drug in plasma", "setting": "JV-DE1 0.53% w/w, monkey, NIODP periorbital skin OD, 159.3 μg/eye, 24 h, LLOQ 0.0001 µg/mL", "result": "BLQ"}, {"measurement": "% Administered Dose, Cornea", "setting": "[1]", "result": 0.0326, "unit": "%"}, {"measurement": "% Administered Dose, Eyelid/periorbital skin", "setting": "[1]", "result": 0.7501, "unit": "%"}, {"measurement": "% Administered Dose, Retina", "setting": "[1]", "result": 0.0002, "unit": "%"}, {"measurement": "% Administered Dose, Vitreous humor", "setting": "[1]", "result": 0.0018, "unit": "%"}, {"measurement": "% Administered Dose, Cornea", "setting": "[2]", "result": 0.3430, "unit": "%"}, {"measurement": "% Administered Dose, Eyelid/periorbital skin", "setting": "[2]", "result": 1.4956, "unit": "%"}, {"measurement": "% Administered Dose, Retina", "setting": "[2]", "result": 0.0004, "unit": "%"}, {"measurement": "% Administered Dose, Vitreous humor", "setting": "[2]", "result": 0.0029, "unit": "%"}, {"measurement": "% Administered Dose, Cornea", "setting": "[3]", "result": 0.5900, "unit": "%"}, {"measurement": "% Administered Dose, Eyelid/periorbital skin", "setting": "[3]", "result": 0.3477, "unit": "%"}, {"measurement": "% Administered Dose, Retina", "setting": "[3]", "result": 0.0005, "unit": "%"}, {"measurement": "% Administered Dose, Vitreous humor", "setting": "[3]", "result": 0.0031, "unit": "%"}, {"measurement": "% Administered Dose, Cornea", "setting": "[4]", "result": 0.1921, "unit": "%"}, {"measurement": "% Administered Dose, Eyelid/periorbital skin", "setting": "[4]", "result": 0.6370, "unit": "%"}, {"measurement": "% Administered Dose, Retina", "setting": "[4]", "result": 0.0004, "unit": "%"}, {"measurement": "% Administered Dose, Vitreous humor", "setting": "[4]", "result": 0.0047, "unit": "%"}, {"measurement": "plasma concentrations", "setting": "JV-DE1, monkey, NIODP about 165.3 µg/eye OD, all time points, LLOQ 0.0001 µg/mL", "result": "≤ 0.3", "unit": "ng/mL"}, {"measurement": "maximum delivery efficiency in the retina", "setting": "JV-DE1, monkey, via NIODP", "result": 0.0005, "unit": "%"}, {"measurement": "decrease of maximum retinal delivery efficiency, NIODP vs eye drop", "setting": "JV-DE1, monkeys (NIODP) vs rabbits (eye drop), not head-to-head", "result": "about 10 fold"}, {"measurement": "Cmax", "setting": "cornea, topical or ocular, 165.3 ug, JV-DE1, monkey, NIODP about 165.3 µg/eye OD, read-out: Cmax in cornea", "result": 9300, "unit": "ng/g"}, {"measurement": "concentration at 24 h", "setting": "cornea, topical, JV-DE1, monkey, NIODP OD, 159.3 μg/eye, 24 h, read-out: Drug in OD Tissues, Cornea", "result": 1620, "unit": "ng/g"}, {"measurement": "concentration at 3 h", "setting": "cornea, topical, JV-DE1, monkey, NIODP OD, 160.6 μg/eye, 3 h, read-out: Drug in OD Tissues, Cornea", "result": 16700, "unit": "ng/g"}, {"measurement": "concentration at 6 h", "setting": "cornea, topical, JV-DE1, monkey, NIODP OD, 162.2 μg/eye, 6 h, read-out: Drug in OD Tissues, Cornea", "result": 23900, "unit": "ng/g"}, {"measurement": "concentration at 0.5 h", "setting": "cornea, topical, JV-DE1, monkey, NIODP OD, 179.1 μg/eye, 0.5 h, read-out: Drug in OD Tissues, Cornea", "result": 9300, "unit": "ng/g"}, {"measurement": "concentration at 24 h", "setting": "eyelid/periorbital skin (upper eyelid), topical, JV-DE1, monkey, NIODP OD, 159.3 μg/eye, 24 h, read-out: Drug in OD Tissues, Eyelid/periorbital skin", "result": 11600, "unit": "ng/g"}, {"measurement": "concentration at 3 h", "setting": "eyelid/periorbital skin (upper eyelid), topical, JV-DE1, monkey, NIODP OD, 160.6 μg/eye, 3 h, read-out: Drug in OD Tissues, Eyelid/periorbital skin", "result": 32500, "unit": "ng/g"}, {"measurement": "concentration at 6 h", "setting": "eyelid/periorbital skin (upper eyelid), topical, JV-DE1, monkey, NIODP OD, 162.2 μg/eye, 6 h, read-out: Drug in OD Tissues, Eyelid/periorbital skin", "result": 7950, "unit": "ng/g"}, {"measurement": "concentration at 0.5 h", "setting": "eyelid/periorbital skin (upper eyelid), topical, JV-DE1, monkey, NIODP OD, 179.1 μg/eye, 0.5 h, read-out: Drug in OD Tissues, Eyelid/periorbital skin", "result": 26500, "unit": "ng/g"}, {"measurement": "Cmax", "setting": "eyelid/periorbital skin, topical or ocular, 165.3 ug, JV-DE1, monkey, NIODP about 165.3 µg/eye OD, read-out: Cmax in eyelid/periorbital skin", "result": 26500, "unit": "ng/g"}, {"measurement": "concentration at 3 h", "setting": "plasma, topical, JV-DE1 0.53% w/w, monkey, NIODP periorbital skin OD, 160.6 μg/eye, 3 h, read-out: Drug in plasma", "result": 0.2, "unit": "ng/mL"}, {"measurement": "concentration at 6 h", "setting": "plasma, topical, JV-DE1 0.53% w/w, monkey, NIODP periorbital skin OD, 162.2 μg/eye, 6 h, read-out: Drug in plasma", "result": 0.3, "unit": "ng/mL"}, {"measurement": "concentration at 0.5 h", "setting": "plasma, topical, JV-DE1 0.53% w/w, monkey, NIODP periorbital skin OD, 179.1 μg/eye, 0.5 h, read-out: Drug in plasma", "result": 0.1, "unit": "ng/mL"}, {"measurement": "Cmax", "setting": "retina, topical or ocular, 165.3 ug, JV-DE1, monkey, NIODP about 165.3 µg/eye OD, read-out: Cmax in retina", "result": 45.5, "unit": "ng/g"}, {"measurement": "Cmax", "setting": "retina, topical, 165.3 µg per eye, JV-DE1, monkey, NIODP, read-out: retinal Cmax", "result": 147, "unit": "nM"}, {"measurement": "concentration at 24 h", "setting": "retina, topical, JV-DE1, monkey, NIODP OD, 159.3 μg/eye, 24 h, read-out: Drug in OD Tissues, Retina", "result": 5.5, "unit": "ng/g"}, {"measurement": "concentration at 3 h", "setting": "retina, topical, JV-DE1, monkey, NIODP OD, 160.6 μg/eye, 3 h, read-out: Drug in OD Tissues, Retina", "result": 27.9, "unit": "ng/g"}, {"measurement": "concentration at 6 h", "setting": "retina, topical, JV-DE1, monkey, NIODP OD, 162.2 μg/eye, 6 h, read-out: Drug in OD Tissues, Retina", "result": 45.5, "unit": "ng/g"}, {"measurement": "concentration at 0.5 h", "setting": "retina, topical, JV-DE1, monkey, NIODP OD, 179.1 μg/eye, 0.5 h, read-out: Drug in OD Tissues, Retina", "result": 39.6, "unit": "ng/g"}, {"measurement": "Cmax", "setting": "vitreous humor, topical or ocular, 165.3 ug, JV-DE1, monkey, NIODP about 165.3 µg/eye OD, read-out: Cmax in vitreous humor", "result": 19, "unit": "ng/mL"}, {"measurement": "concentration at 24 h", "setting": "vitreous humor, topical, JV-DE1, monkey, NIODP OD, 159.3 μg/eye, 24 h, read-out: Drug in OD Tissues, Vitreous humor", "result": 19, "unit": "ng/mL"}, {"measurement": "concentration at 3 h", "setting": "vitreous humor, topical, JV-DE1, monkey, NIODP OD, 160.6 μg/eye, 3 h, read-out: Drug in OD Tissues, Vitreous humor", "result": 7.9, "unit": "ng/mL"}, {"measurement": "concentration at 6 h", "setting": "vitreous humor, topical, JV-DE1, monkey, NIODP OD, 162.2 μg/eye, 6 h, read-out: Drug in OD Tissues, Vitreous humor", "result": 3.9, "unit": "ng/mL"}, {"measurement": "concentration at 0.5 h", "setting": "vitreous humor, topical, JV-DE1, monkey, NIODP OD, 179.1 μg/eye, 0.5 h, read-out: Drug in OD Tissues, Vitreous humor", "result": 15.2, "unit": "ng/mL"}]}]}
